Laboratory results from BindingDB's records for doi:10.1016/j.bmcl.2005.04.021 (Novartis Institutes For Biomedical Research, 2005).

molecular target: T1, Adenosine receptor A2b (Homo sapiens, UniProt P29275); test: Inhibition of luciferase production elicited by NECA by compound in CHO cells transfected with human adenosine A2b receptor and a luciferase expressing reporter plasmid in a reporter gene assay
T1 sequence (P29275 whole entry): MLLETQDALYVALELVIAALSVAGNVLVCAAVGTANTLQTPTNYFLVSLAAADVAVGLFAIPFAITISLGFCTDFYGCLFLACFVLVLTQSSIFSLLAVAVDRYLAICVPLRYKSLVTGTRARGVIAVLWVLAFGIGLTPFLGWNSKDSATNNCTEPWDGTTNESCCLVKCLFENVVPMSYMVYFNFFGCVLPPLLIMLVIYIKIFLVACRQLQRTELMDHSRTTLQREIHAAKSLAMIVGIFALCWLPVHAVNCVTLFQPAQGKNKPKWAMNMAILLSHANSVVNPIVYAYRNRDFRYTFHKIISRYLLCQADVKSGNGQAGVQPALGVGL

KB [nM]	Compound
53	N#Cc1cccc(-c2nc(Nc3ccccn3)sc2-n2cncn2)c1 [3-[2-(Pyridin-2-ylamino)-5-[1,2,4]triazol-1-yl-thiazol-4-yl]-benzonitrile]
86	N#Cc1cccc(-c2nc(Nc3cccnc3)sc2-n2cncn2)c1 [3-[2-(Pyridin-3-ylamino)-5-[1,2,4]triazol-1-yl-thiazol-4-yl]-benzonitrile]
62	N#Cc1cccc(-c2nc(Nc3ccncc3)sc2-n2cncn2)c1 [3-[2-(Pyridin-4-ylamino)-5-[1,2,4]triazol-1-yl-thiazol-4-yl]-benzonitrile]
92	N#Cc1cccc(-c2nc(Nc3cccnc3)sc2-n2ccnc2)c1 [3-[5-Imidazol-1-yl-2-(pyridin-3-ylamino)-thiazol-4-yl]-benzonitrile]
